Results on 26 compounds are retold here after ChEMBL document CHEMBL1828586 (J Med Chem, 2011).

One may read the IC50 as the point on the concentration scale where inhibition reaches its midpoint. Higher therefore signals lower potency.

Each structure is given as a SMILES string.

Assay type in all cases: functional, cell-based
A short description of experiment [1]: Anticancer activity against mouse B16-F1 cells after 96 hrs by SRB assay. To be noted: B16-F1, 96 h.
Another experiment deals with A-375. Nature of the experiment: Anticancer activity against human A375 cells after 96 hrs by SRB assay. Particulars: A-375, 96 h. For orientation: Sulforhodamine B stains cellular protein and so reports cell mass.
A further experiment has as its system DU-145. The experiment is described as follows: Anticancer activity against human DU145 cells after 96 hrs by SRB assay. To be noted: DU-145, 96 h.
In another experiment the test system is PC-3. The experiment is described as follows: Anticancer activity against human PC3 cells after 96 hrs by SRB assay. Particulars: PC-3, 96 h.
Another experiment concerns LNCaP. The experiment is described as follows: Anticancer activity against human LNCAP cells after 96 hrs by SRB assay.
Another experiment deals with PPC-1. Nature of the experiment: Anticancer activity against human PPC1 cells after 96 hrs by SRB assay. Particulars: PPC-1, 96 h.
Experiment [2] is described as follows: Anticancer activity against human WM164 cells after 96 hrs by SRB assay. To be noted: WM164, 96 h.

For the compound `COc1cc(C(=O)c2coc(-c3ccccc3)n2)cc(OC)c1OC`, the IC50 in experiment [1] stood at 600 nM; in the experiment on A-375, 300 nM; with DU-145, 292 nM; with PC-3 it was 292 nM; with LNCaP, 331 nM; in the experiment on PPC-1, 343 nM.
Regarding `COc1cc(C(=O)c2csc(Nc3ccc(C)cc3)n2)cc(OC)c1OC`, the IC50 came to 35 nM with DU-145, 38 nM with PC-3, 35 nM in the experiment with LNCaP and 36 nM in the experiment with PPC-1.
For the compound `CNCc1ccc(-c2nc(C(=O)c3cc(OC)c(OC)c(OC)c3)cs2)cc1`, the IC50 in experiment [1] is more than 10000 nM; with A-375, more than 10000 nM; in the experiment with DU-145, 10000 nM; in the experiment with PC-3, more than 10000 nM; in the experiment on LNCaP, 1140 nM; in the experiment on PPC-1, 10000 nM.
As to `COc1cc(C(=O)c2csc(-c3ccc(CN(C)C)cc3)n2)cc(OC)c1OC`, the IC50 in experiment [1] was more than 10000 nM; with A-375 it was more than 10000 nM; in the experiment with DU-145 it was more than 10000 nM; with PC-3 it was more than 10000 nM; in the experiment on LNCaP, 1020 nM; in the experiment on PPC-1, more than 10000 nM.
In the case of `COc1cc(/C(=N/O)c2csc(-c3ccccc3)n2)cc(OC)c1OC`, the IC50 in experiment [1] stood at 300 nM; in the experiment with A-375, 200 nM; with DU-145, 103 nM; with PC-3 it was 120 nM; with LNCaP it was 169 nM; in the experiment on PPC-1, 144 nM.
With `COc1cc(C(=O)N2CCC(c3ccccc3)CC2)cc(OC)c1OC`, the IC50 in experiment [1] was more than 30000 nM; with A-375, more than 30000 nM; in the experiment on DU-145 it was more than 20000 nM; in the experiment with PC-3 it was more than 20000 nM; in the experiment on LNCaP, more than 20000 nM; with PPC-1, more than 20000 nM.
As to `COc1cc(C(=O)c2cc(-c3ccccc3)n[nH]2)cc(OC)c1OC`, the IC50 is 245 nM in experiment [1]; 100 nM in the experiment on A-375; 145 nM in the experiment on DU-145; 101 nM in the experiment on PC-3; 101 nM with LNCaP; 84 nM with PPC-1.
In the case of `COc1cc(C(=O)c2cc(-c3ccccc3)ncn2)cc(OC)c1OC`, the IC50 in experiment [1] is more than 30000 nM; in the experiment on A-375 it was more than 30000 nM; in the experiment on DU-145 it was 6900 nM; in the experiment with PC-3 it was 8300 nM; with LNCaP, 7000 nM; in the experiment with PPC-1, 3700 nM.
`COc1cc(C(=O)c2cccc(-c3ccccc3)c2)cc(OC)c1OC`: the IC50 in experiment [1] amounted to 500 nM; in the experiment with A-375, 87 nM; in the experiment on DU-145, 171 nM; with PC-3 it was 124 nM; in the experiment with LNCaP it was 52 nM; with PPC-1 it was 80 nM.
For the compound `COc1cc(C(O)c2csc(-c3ccccc3)n2)cc(OC)c1OC` (stereo not drawn), the IC50 in experiment [1] was more than 30000 nM; with A-375, more than 30000 nM; in the experiment with DU-145 it was more than 10000 nM; with PC-3, more than 10000 nM; in the experiment on LNCaP, more than 10000 nM; with PPC-1 it was more than 10000 nM.
In the case of `COc1cc(C(=O)c2csc(-c3ccc(O)cc3)n2)cc(OC)c1OC`, the IC50 came out at 110 nM in experiment [1]; 100 nM in the experiment on A-375; 116 nM with DU-145; 87 nM with PC-3; 103 nM in the experiment with LNCaP; 76 nM with PPC-1.
Take `COc1cc(C(=O)c2csc(-c3ccc(CNC(=O)OC(C)(C)C)cc3)n2)cc(OC)c1OC`: the IC50 in experiment [1] is 2900 nM; with A-375, 7900 nM; in the experiment with DU-145, 4300 nM; in the experiment with PC-3 it was 3100 nM; with LNCaP, 2600 nM; in the experiment on PPC-1, 2700 nM.
Regarding `COc1cc(C(=O)[C@@H]2CSC(c3ccc(O[Si](C)(C)C(C)(C)C)cc3)=N2)cc(OC)c1OC`, the IC50 in experiment [1] turned out to be 500 nM; in the experiment with A-375, 700 nM; in the experiment on DU-145, 434 nM; in the experiment on PC-3, 183 nM; in the experiment on LNCaP it was 549 nM; in the experiment on PPC-1, 246 nM.
Regarding `COc1cc(/C(=N/N)c2csc(-c3ccccc3)n2)cc(OC)c1OC`, the IC50 stood at 2000 nM in experiment [1]; 900 nM with A-375; 1210 nM in the experiment with DU-145; 1120 nM in the experiment with PC-3; 1800 nM in the experiment with LNCaP; 872 nM with PPC-1.
On to `COc1cc(C(=O)c2cc(-c3ccccc3)on2)cc(OC)c1OC`, for which the IC50 is more than 30000 nM in experiment [1]; more than 30000 nM with A-375; more than 10000 nM in the experiment with DU-145; more than 10000 nM in the experiment with PC-3; more than 10000 nM in the experiment with LNCaP; more than 10000 nM in the experiment on PPC-1.
As for `COc1cc(C(=O)c2ccc(-c3ccccc3)o2)cc(OC)c1OC`, the IC50 amounted to 151 nM in experiment [1]; 27 nM in the experiment with A-375; 35 nM with DU-145; 21 nM in the experiment with PC-3; 23 nM with LNCaP; 20 nM with PPC-1.
On to `CO/N=C(\c1cc(OC)c(OC)c(OC)c1)c1csc(-c2ccccc2)n1`, for which the IC50 (in experiment [1]; in the experiment on A-375; with DU-145; with PPC-1; in experiment [2]) was more than 10000 nM in each case.
With `COc1cc(C(=O)[C@@H]2COC(c3ccccc3)=N2)cc(OC)c1OC`, the results for the IC50 (in experiment [1]; with A-375; in the experiment with PPC-1) were 6500 nM, 500 nM and 1100 nM, respectively.
As for `COc1cc(C(=O)c2csc(-c3cc4ccccc4[nH]3)n2)cc(OC)c1OC`, the IC50 in experiment [1] was 43 nM; in the experiment on A-375 it was 19 nM; in the experiment with DU-145 it was 32 nM; in the experiment with PC-3 it was 24 nM; with LNCaP, 28 nM; in the experiment with PPC-1 it was 28 nM.
In the case of `COc1cc(C(=O)c2csc(-c3ccccc3)c2)cc(OC)c1OC`, the IC50 in experiment [1] is 72 nM; in the experiment with A-375, 15 nM; in the experiment with DU-145, 26 nM; in the experiment with PC-3, 12 nM; with PPC-1, 15 nM.
For `CO/N=C(/c1cc(OC)c(OC)c(OC)c1)c1csc(-c2ccccc2)n1`, the IC50 was 3800 nM in experiment [1]; 2900 nM in the experiment on A-375; more than 10000 nM with DU-145; more than 10000 nM in the experiment on PC-3; more than 10000 nM with LNCaP; 3400 nM in experiment [2].
As to `COc1cc(/C(=N\N)c2csc(-c3ccccc3)n2)cc(OC)c1OC`, the IC50 in experiment [1] is 1800 nM; in the experiment with A-375, 600 nM; in the experiment with PC-3, 1040 nM; in the experiment with LNCaP, 1300 nM; in the experiment with PPC-1, 966 nM.
On to `COc1cc(C(=O)c2cnc(-c3ccccc3)s2)cc(OC)c1OC`, for which the IC50 in experiment [1] is 12500 nM; in the experiment on A-375, 13600 nM; in the experiment with DU-145, more than 10000 nM; in the experiment with PC-3, more than 10000 nM; in the experiment with LNCaP it was more than 10000 nM; with PPC-1 it was more than 10000 nM.
In the case of `COc1cc(/C(=N\O)c2csc(-c3ccccc3)n2)cc(OC)c1OC`, the IC50 in experiment [1] is 11400 nM; with A-375 it was 7800 nM; in the experiment on DU-145, more than 10000 nM; in the experiment with PC-3, more than 10000 nM; in the experiment on LNCaP, more than 10000 nM; with PPC-1, more than 10000 nM.
`COc1cc(C(=O)Nc2csc(-c3ccccc3)n2)cc(OC)c1OC`: the IC50 is more than 30000 nM in experiment [1]; more than 30000 nM with A-375; more than 10000 nM with DU-145; more than 10000 nM in the experiment with PC-3; more than 10000 nM with LNCaP; more than 10000 nM in the experiment on PPC-1.
`COc1cc(NC(=O)c2csc(-c3ccccc3)n2)cc(OC)c1OC`: the IC50 in experiment [1] is more than 30000 nM; in the experiment on A-375, more than 30000 nM; in the experiment on DU-145, more than 10000 nM; in the experiment with PC-3 it was more than 10000 nM; in the experiment on LNCaP, more than 10000 nM; in the experiment with PPC-1, more than 10000 nM.
